Measured values: patent US4264598A (priority 1980, dated 1981)

How the values were obtained:
Septoria apii = assay type: in vivo, Septoria apii (host: celery, Utah); conditions: 250 ppm (Table I default); approximately 48 hours incubation then approximately 14 days; relative to untreated check plants
Erysiphe polygoni = assay: Powdery mildew, % disease control; assay type: in vivo, Erysiphe polygoni (host: bean seedlings, var. Bountiful); conditions: 250 ppm spray; inoculated one day later; rated after about 10 days; relative to untreated check plants
Protocol: The powdery mildew test was made using bean seedlings (var. Bountiful) with well-developed primary leaves. The pathogen was Erysiphe polygoni. The bean seedlings were sprayed with a 250-ppm solution of the test compound in an acetone-water mixture containing a nonionic emulsifier. The treated plants were inoculated one day after spray application of the test compound with the pathogen. The plants were then maintained in a greenhouse at a 60-80% relative humidity and at a temperature of 68°-70° F. The rate of infection on the leaves was made after about 10 days. The percent disease control provided by a given test compound was based on the disease reduction relative to untreated check plants.

Phytophthora infestans = assay type: in vivo, Phytophthora infestans (host: tomato, cultivar Bonny Best); conditions: 250 ppm spray; inoculated one day later; approximately 7 days in greenhouse; relative to untreated check plants
[1] = system: Alternaria solani conidia; assay: Tomato early blight, % disease control; assay type: in vivo, Alternaria solani (host: tomato, variety Bonny Best); conditions: 250 ppm spray; inoculated one day later; about 12 days; relative to untreated check plants
Protocol: Compounds of the invention were tested for the control of the Tomato Early Blight organism, Alternaria solani conidia. Tomato (variety Bonny Best) seedlings of 6 to 7 weeks old were used. The tomato plants were sprayed with a 250-ppm solution of the test compound in an acetone-and-water solution containing a small amount of a nonionic emulsifier. The sprayed plants were inoculated one day later with the organism, dried and maintained at 60-80% relative humidity for about 12 days. Percent disease control was based on the percent disease development on untreated check plants.

Uronyces phaseoli tipica = assay: Leaf rust, % disease control; assay type: in vivo, Uronyces phaseoli tipica (host: pinto beans); conditions: 250 ppm spray; inoculated thereafter; rated after about 14 days; relative to untreated check plants
Protocol: The leaf-rust was made using pinto beans. The pathogen was Uronyces phaseoli tipica. The pinto-bean plants were sprayed with a 250-ppm solution of the test compound in an acetone-water mixture containing a nonionic emulsifier. The treated plants were inoculated thereafter with the pathogen and then incubated in an environmental chamber for approximately 20 hours at 100% relative humidity and a temperature of 68°-70° F. The plants were then removed from the chamber, allowed to dry, and then maintained in a greenhouse at a 60-80% relative humidity. The rate of infection on the leaves was made after about 14 days. The percent disease control provided by a given test compound was based on the disease reduction relative to untreated check plants.

Compound | Fungicidal efficacy, % control, CLB (Septoria apii) | Fungicidal efficacy, % control, PM (Erysiphe polygoni) | Fungicidal efficacy, % control, TLB (Phytophthora infestans) | Fungicidal efficacy, % control, TEB [1] | Fungicidal efficacy, % control, LR (Uronyces phaseoli tipica)
C#CC(C)(C)N1CN(C(C)(C)C#C)CN(C(C)(C)C#C)C1 [Compound 2, 1,3,5-(1',1'-dimethyl-propargyl)-hexahydro-1,3,5-triazine] | 27% | 0% | 0% | 0% | 0%
C#CC1(N2CN(C3(C#C)CCCCC3)CN(C3(C#C)CCCCC3)C2)CCCCC1 [Compound 1, 1,3,5-TRI(1'-ETHYNYLCYCLOHEXYL)-HEXAHYDRO-1,3,5-TRIAZINE] | 74% | 37% | 100% | 100% | 0%
